pEC50, pIC50: −log10 of the molar value.
Columns and labels:
[1] = target: HER2YVMA (Homo sapiens, UniProt P04626, INS775YVMA); experiment: Enzymatic assay HER2YVMA (method b); format: biochemical; design: purchased Viva biotech, Shanghai, China custom purification; conditions: [HER2YVMA]=5 nM, [ATP]=25 μM, [Peptide 22]=1 μM
Procedure, shortened: (§1)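 Microfluidic mobility-shift kinase assay with Peptide 22 (1 μM) in HEPES pH 7.5, MnCl2, MgCl2, Tween 20, TCEP. HER2 WT 12.5 nM and HER2 YVMA 5 nM each used 25 μM ATP; EGFR WT 2 nM used 1 mM ATP. IC50 came from initial-velocity (0–3600 s) percent inhibition, fitted to a variable-slope model.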

[2] = target: T1, HER2 wildtype (WT) protein (Homo sapiens, UniProt P04626); experiment: HER2 signaling (pHER2 Tyr1248/total HER2 MSD) in BT474 cells; format: cell-based; conditions: 1.5 hr compound, 1% FBS
T1 construct: BT474 and N87 cell lines which endogenously overexpress the HER2 wildtype (WT) protein; endogenous in cells; host or cells: BT474, N87
Procedure, shortened: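 BT474, N87 (HER2 WT) and NCI-H1781 (HER2 G776delinsVC) cells were treated for 1.5 h at 37° C in 1% FBS medium with compound at 0.0005–1.1 μM. pHER2 Tyr1248 was measured by MSD on whole-cell lysates and normalized to total HER2 as % DMSO. EC50 came from a variable-slope sigmoidal fit.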

[3] = target: T2, HER2 WT (Homo sapiens, UniProt P04626); experiment: Enzymatic assay HER2 WT (method a); format: biochemical; conditions: [HER2 WT]=12.5 nM, [ATP]=25 μM, [Peptide 22]=1 μM
T2 construct: purchased ProQinase, Freiburg, Germany ERBB2 0108-0000-1
Procedure, shortened: as §1

[4] = target: T3, EGFR WT (Homo sapiens, UniProt P00533); experiment: Enzymatic assay EGFR WT (method c); format: biochemical; conditions: [EGFR WT]=2 nM, [ATP]=1 mM, [Peptide 22]=1 μM
T3 construct: purchased Thermo Fisher, Carlsbad, CA ERBB1 PR7295B
Procedure, shortened: as §1

HER2YVMA, sequence (P04626 with tags, fused parts or gaps INS775YVMA): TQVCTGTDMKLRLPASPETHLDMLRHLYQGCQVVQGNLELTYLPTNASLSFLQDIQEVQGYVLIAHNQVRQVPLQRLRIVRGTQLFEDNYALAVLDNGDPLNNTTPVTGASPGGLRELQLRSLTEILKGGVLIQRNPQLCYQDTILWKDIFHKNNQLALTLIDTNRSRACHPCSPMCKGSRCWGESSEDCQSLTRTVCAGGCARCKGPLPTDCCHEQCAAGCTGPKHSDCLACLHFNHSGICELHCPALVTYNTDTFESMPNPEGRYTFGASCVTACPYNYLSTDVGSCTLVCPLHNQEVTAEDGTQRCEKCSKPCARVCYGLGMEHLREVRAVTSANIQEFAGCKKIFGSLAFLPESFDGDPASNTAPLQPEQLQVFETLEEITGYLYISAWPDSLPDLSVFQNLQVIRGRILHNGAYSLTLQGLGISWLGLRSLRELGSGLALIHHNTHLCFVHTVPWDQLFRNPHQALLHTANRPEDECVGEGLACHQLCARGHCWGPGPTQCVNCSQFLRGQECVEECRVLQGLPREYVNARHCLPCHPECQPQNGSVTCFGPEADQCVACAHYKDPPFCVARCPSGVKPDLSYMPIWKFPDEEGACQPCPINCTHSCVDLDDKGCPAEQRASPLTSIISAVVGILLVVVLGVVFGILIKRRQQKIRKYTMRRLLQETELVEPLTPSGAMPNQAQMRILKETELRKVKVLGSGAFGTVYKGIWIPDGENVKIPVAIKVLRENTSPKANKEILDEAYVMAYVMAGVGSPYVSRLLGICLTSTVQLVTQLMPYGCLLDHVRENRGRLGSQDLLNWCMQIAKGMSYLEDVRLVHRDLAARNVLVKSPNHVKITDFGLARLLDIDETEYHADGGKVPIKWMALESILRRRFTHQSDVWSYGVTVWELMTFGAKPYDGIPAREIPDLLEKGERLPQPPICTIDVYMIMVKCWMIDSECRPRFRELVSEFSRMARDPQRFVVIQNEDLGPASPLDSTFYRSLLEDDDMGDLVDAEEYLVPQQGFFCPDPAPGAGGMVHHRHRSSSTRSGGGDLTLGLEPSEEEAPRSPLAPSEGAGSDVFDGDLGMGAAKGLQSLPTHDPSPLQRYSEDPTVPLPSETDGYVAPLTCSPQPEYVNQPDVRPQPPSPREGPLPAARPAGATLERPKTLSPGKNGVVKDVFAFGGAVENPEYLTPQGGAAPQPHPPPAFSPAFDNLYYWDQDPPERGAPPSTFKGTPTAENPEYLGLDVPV
T3 sequence (P00533 25-1210): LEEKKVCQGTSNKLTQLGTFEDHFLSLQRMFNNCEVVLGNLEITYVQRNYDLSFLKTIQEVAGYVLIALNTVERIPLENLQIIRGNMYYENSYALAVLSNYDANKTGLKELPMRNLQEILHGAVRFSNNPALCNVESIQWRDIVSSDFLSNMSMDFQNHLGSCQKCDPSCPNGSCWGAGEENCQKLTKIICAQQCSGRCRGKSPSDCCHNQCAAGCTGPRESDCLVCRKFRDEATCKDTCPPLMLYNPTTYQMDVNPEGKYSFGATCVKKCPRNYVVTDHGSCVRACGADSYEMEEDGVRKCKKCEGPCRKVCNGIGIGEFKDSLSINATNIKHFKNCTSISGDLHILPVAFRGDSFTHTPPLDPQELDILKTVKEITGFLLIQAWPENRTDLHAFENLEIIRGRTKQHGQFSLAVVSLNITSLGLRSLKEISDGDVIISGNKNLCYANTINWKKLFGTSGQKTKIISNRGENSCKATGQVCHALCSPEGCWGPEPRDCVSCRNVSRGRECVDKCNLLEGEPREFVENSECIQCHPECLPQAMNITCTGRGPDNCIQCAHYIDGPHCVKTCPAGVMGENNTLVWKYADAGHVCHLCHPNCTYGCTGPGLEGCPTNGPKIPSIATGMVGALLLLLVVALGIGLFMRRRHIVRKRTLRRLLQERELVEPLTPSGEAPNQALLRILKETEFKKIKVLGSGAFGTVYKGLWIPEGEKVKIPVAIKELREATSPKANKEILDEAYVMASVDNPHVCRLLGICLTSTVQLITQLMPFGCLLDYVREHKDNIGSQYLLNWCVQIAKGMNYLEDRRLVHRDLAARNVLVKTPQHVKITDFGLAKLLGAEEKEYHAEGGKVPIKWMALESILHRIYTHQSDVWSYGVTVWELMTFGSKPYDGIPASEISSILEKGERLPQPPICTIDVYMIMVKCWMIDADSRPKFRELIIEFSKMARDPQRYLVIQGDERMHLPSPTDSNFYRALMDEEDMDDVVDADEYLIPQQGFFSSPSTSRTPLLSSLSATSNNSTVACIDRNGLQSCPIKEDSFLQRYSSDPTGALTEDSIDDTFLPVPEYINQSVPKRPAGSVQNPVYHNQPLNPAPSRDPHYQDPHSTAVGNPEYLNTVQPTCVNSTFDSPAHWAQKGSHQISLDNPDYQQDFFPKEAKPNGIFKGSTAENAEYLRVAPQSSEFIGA
T2 sequence (P04626 23-1255): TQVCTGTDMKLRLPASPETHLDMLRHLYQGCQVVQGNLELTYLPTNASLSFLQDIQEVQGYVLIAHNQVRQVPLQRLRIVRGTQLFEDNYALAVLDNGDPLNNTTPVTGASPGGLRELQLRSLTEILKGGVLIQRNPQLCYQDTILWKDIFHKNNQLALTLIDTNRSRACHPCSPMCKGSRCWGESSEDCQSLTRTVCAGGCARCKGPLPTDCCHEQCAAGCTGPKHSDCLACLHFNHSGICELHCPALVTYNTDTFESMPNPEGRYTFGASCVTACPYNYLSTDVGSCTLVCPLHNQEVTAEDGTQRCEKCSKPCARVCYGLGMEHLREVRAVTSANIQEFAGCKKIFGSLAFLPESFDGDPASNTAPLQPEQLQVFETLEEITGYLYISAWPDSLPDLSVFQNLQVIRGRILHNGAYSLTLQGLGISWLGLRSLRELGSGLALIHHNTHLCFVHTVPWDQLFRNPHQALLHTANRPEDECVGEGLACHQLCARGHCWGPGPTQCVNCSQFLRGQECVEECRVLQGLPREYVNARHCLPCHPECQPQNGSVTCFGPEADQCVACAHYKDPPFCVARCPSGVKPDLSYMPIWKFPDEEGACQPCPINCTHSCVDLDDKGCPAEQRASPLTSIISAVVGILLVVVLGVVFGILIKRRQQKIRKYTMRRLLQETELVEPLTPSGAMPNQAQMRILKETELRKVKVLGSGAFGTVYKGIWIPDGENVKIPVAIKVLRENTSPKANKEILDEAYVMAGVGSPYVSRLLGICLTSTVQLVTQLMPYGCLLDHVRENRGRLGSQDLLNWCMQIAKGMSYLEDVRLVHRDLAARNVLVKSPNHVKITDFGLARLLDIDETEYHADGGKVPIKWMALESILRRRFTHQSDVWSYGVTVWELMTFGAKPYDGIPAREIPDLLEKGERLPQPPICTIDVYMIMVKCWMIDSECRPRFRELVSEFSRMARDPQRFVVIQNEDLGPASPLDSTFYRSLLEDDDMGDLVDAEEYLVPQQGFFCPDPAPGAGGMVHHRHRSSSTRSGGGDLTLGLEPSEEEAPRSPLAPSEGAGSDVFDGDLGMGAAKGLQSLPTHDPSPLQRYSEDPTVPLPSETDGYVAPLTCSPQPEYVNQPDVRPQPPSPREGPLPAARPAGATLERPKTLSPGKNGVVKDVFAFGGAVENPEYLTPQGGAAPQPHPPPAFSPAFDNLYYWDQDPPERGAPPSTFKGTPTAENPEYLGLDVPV
T1 sequence (P04626 23-1255): as above

Row | Compound | pIC50 [1] | pEC50 [2] | pIC50 [3] | pIC50 [4]
1 | Cc1ccc(Oc2ccc(Nc3ncnc4sc5c(c34)C(C)CN(C(=O)/C=C/CN(C)C)C5)cc2Cl)cn1 (centres unmarked) [Compound 171, (E)-1-(4-((3-Chloro-4-((6-methylpyridin-3-yl)oxy)phenyl)amino)-5-methyl-5,6-dihydropyrido[4′,3′:4,5]thieno[2,3-d]pyrimidin-7(8H)-yl)-4-(dimethylamino)but-2-en-1-one] | > 7.00 | > 7.00 | > 7.00 | < 5.00
2 | Cc1cc(Nc2ncnc3sc4c(c23)CCN(C(=O)/C=C/CN(C)C)CC4)ccc1Oc1ccn2ccnc2c1 [Compound 172, (E)-4-(Dimethylamino)-1-(4-((4-(imidazo[1,2-a]pyridin-7-yloxy)-3-methylphenyl)amino)-8,9-dihydro-5H-pyrimido[5′,4′:4,5]thieno[2,3-d]azepin-7(6H)-yl)but-2-en-1-one] | > 7.00 | > 7.00 | > 7.00 | < 5.00
3 | COc1ccc(Oc2ccc(Nc3ncnc4sc5c(c34)CCN(C(=O)/C=C/CN(C)C)CC5)cc2C)cn1 [Compound 173, (E)-4-(Dimethylamino)-1-(4-((4-((6-methoxypyridin-3-yl)oxy)-3-methylphenyl)amino)-8,9-dihydro-5H-pyrimido[5′,4′:4,5]thieno[2,3-d]azepin-7(6H)-yl)but-2-en-1-one] | 6.00 to 7.00 | > 7.00 | 6.00 to 7.00 | < 5.00
4 | Cc1ccc(Oc2ccc(Nc3ncnc4sc5c(c34)C(C)CN(C(=O)/C=C/CN3CCOCC3)C5)cc2C)cn1 (centres unmarked) [Compound 174, (E)-1-(5-Methyl-4-((3-methyl-4-((6-methylpyridin-3-yl)oxy)phenyl)amino)-5,6-dihydropyrido[4′,3′:4,5]thieno[2,3-d]pyrimidin-7(8H)-yl)-4-morpholinobut-2-en-1-one] | > 7.00 | > 7.00 | 6.00 to 7.00 | < 5.00
5 | Cc1ccc(Oc2ccc(Nc3ncnc4sc5c(c34)C(C)CN(C(=O)/C=C/CN(C)C(C)(C)C)C5)cc2C)cn1 (centres unmarked) [Compound 175] | > 7.00 | > 7.00 | > 7.00 | < 5.00

Reference: US20240391931A1 (Bristol-Myers Squibb Company, priority 2021, published 2024)
